Measured values published in US10975352B2, “Methods of enhancing cell survival of stem cells” (The Scripps Research Institute, priority 2008, dated 2021).

How the values were obtained:
E-cadherin = E-cadherin expression in hESCs after trypsin dissociation (Western blot, flow cytometry, RT-PCR); format: cell-based, human
Excerpt: We then examined E-cadherin expression in hESCs after trypsin dissociation. […] This observation was consistent with the report that the extracellular region of E-cadherin has an endoproteolytic cleavage site near the transmembrane domain (Damsky, C. H. et al., Cell 34 (2):455-466 (1983)). […] Therefore, Tzv is likely to affect cell adhesion by modulating cell surface level of E-cadherins. […] It is likely that Tzv exerts its effect through stabilization of E-cadherin on the cell surface.
To assess the expression of E-cadherin, activated integrin and SSEA4, dissociated cells (3×10^5) were washed with PBS and resuspended in PBS containing 2% goat serum. Cells were then incubated with the appropriate antibody for 1 h at 4° C., washed with the blocking solution, and labeled with FITC-conjugated secondary antibody for 30 min at 4° C. Cells were then washed and analyzed on a FACS Calibur flow cytometer.

[1] = system: mouse P1 cortical explants; assay: Axon outgrowth from mouse P1 cortical explants; format: cell-based; conditions: 3 μM; added 20 minutes after plating; 4 days in culture; DMSO control
Procedure: Compounds of formula I and III (i.e., Tvz and Ptn) are effective at promoting axonal regeneration and functional recovery in injured central nervous system. […] Tzv (3 μM) was tested on mouse P1 cortical explants, with axon outgrowth as an outcome read-out. Tzv was added to the medium 20 minutes after plating, with DMSO as a control. […] Accordingly, in some embodiments, a compound of the present invention is administered to an individual having a central nervous system injury or who is in need or would otherwise benefit from axonal regeneration.

[2] = system: epithelial to mesenchymal transition/EMT; assay: Induction of MET / inhibition of EMT; format: cell-based
hESCs = assay: Karyotyping (G-banding) of long-term expanded hESCs; format: cell-based, human; conditions: more than 20 generations; chemically-defined medium
Procedure: Teratoma formation experiments were performed by injecting 3-5 million hESCs (maintained in the presence of compounds Tvz or Ptn) under the kidney capsule of nude mice. After 4-5 weeks, all mice developed teratomas, which were removed and then immunohistologically analyzed by The Scripps Research Institute Research Histology Service and Animal Resources. Compounds treated cells were karyotyped by standard G-banding at the Children's Hospital Oakland, Cytogenetics Laboratory. No chromosomal abnormality was found in the 10 randomly picked nuclei.

- karyotype of hESCs serially passaged in compound-containing medium (hESCs): normal karyotype
Structure (SMILES): O=C(NCc1ccccc1)c1csc(Nc2ccncn2)n1 [Tzv, N-benzyl-2-(pyrimidin-4-ylamino)thiazole-4-carboxamide]
- cell surface E-cadherins (E-cadherin; flow cytometry): significantly increased
- E-cadherin transcripts vs mock controls (E-cadherin; semiquantitative RT-PCR): comparable amounts
- full-length E-cadherin expression after trypsin dissociation (E-cadherin; time-course Western blot): significantly increased
- axon outgrowth [1]: dramatic effect in promoting axon outgrowth
- MET induction and EMT inhibition [2]: can induce MET (the reverse of EMT) and inhibit EMT
